Source: PubChem BioAssay (NCI)
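48-hour exposure; five concentrations; linearly interpolated endpoints. GI50 = concentration required for 50% inhibition of growth. Definition used: TGI = concentration required for complete inhibition of growth.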

What was measured:
Assay in all cases: NCI anticancer screen, dose series, 48 h
TK-10 renal = system: TK-10 renal
SK-MEL-5 melanoma = system: SK-MEL-5 melanoma
SK-MEL-28 melanoma = system: SK-MEL-28 melanoma
NCI-H522 lung = system: NCI-H522 lung
OVCAR-5 ovarian = system: OVCAR-5 ovarian
IGROV1 ovarian = system: IGROV1 ovarian
OVCAR-3 ovarian = system: OVCAR-3 ovarian
UACC-257 melanoma = system: UACC-257 melanoma
M14 melanoma = system: M14 melanoma
MDA-MB-231 breast = system: MDA-MB-231 breast

Row | Compound | TGI (TK-10 renal) [µM] | TGI (SK-MEL-5 melanoma) [µM] | TGI (SK-MEL-28 melanoma) [µM] | TGI (NCI-H522 lung) [µM] | TGI (OVCAR-5 ovarian) [µM] | TGI (IGROV1 ovarian) [µM] | TGI (OVCAR-3 ovarian) [µM] | TGI (UACC-257 melanoma) [µM] | TGI (M14 melanoma) [µM] | TGI (MDA-MB-231 breast) [µM] | GI50 (TK-10 renal) [µM] | GI50 (SK-MEL-5 melanoma) [µM] | GI50 (SK-MEL-28 melanoma) [µM] | GI50 (NCI-H522 lung) [µM] | GI50 (OVCAR-5 ovarian) [µM] | GI50 (MDA-MB-231 breast) [µM] | GI50 (OVCAR-3 ovarian) [µM] | GI50 (UACC-257 melanoma) [µM] | GI50 (M14 melanoma) [µM] | GI50 (IGROV1 ovarian) [µM]
1 | CC[N+](C)(CC)CC(C)(C)C(=O)/C=C/c1ccc(/C=C/C(=O)C(C)(C)C[N+](C)(CC)CC)cc1 | > 100 | > 100 | > 100 | > 100 | > 100 | > 100 | > 100 | > 100 | > 100 |  |  |  |  |  |  |  |  |  |  | 
2 | Cc1ccc(NC(=O)/C(=N/N(C)C)C(C2OC(=O)c3ccccc32)[N+](=O)[O-])cc1 (stereo not given) | > 100 | > 100 | > 100 |  | > 100 |  | > 100 | > 100 | > 100 | > 100 |  |  |  |  |  |  |  |  |  | 
3 | COc1ccccc1NS(=O)(=O)c1ccc2oc(SC(C)C)nc2c1 | 53.8 | 17.4 | > 100 | 75.7 | > 100 |  | 40.4 | 19.1 | > 100 | 52 | 18.5 | 3.99 | 37.5 | 10.2 | 48.9 | 12.4 | 19.3 | 1.76 | 36.1 | 
4 | O=C(CCc1nnc2s/c(=C\c3ccccc3Cl)c(=O)n12)Nc1cc(Cl)ccc1Cl | > 100 | > 100 | > 100 | > 100 | > 100 | > 100 | > 100 | > 100 | > 100 |  |  |  |  |  |  |  |  |  |  | 
5 | C=C(C)C(=O)O[C@@H]1C/C(C)=C\[C@H](OC(C)=O)C[C@](C)(O)/C=C2/OC(=O)C(COC(C)=O)=C21 | 3.7 | 8.4 | 0.762 | 0.539 | 4.55 | 3 |  | 3.62 |  | 2.63 |  |  |  |  |  |  |  |  |  | 
6 | CC12CCC3c4cc(Br)c(O)c(Br)c4CCC3C1CCC2O (stereo not given) | 43.1 |  | 34.9 |  | > 100 | 34 | 56.4 | 35.8 | > 100 | 27.4 |  |  |  |  |  |  |  |  |  | 
7 | CN(C)CCNC(=O)c1cccc2ccc(-c3ccc(-c4ccccc4)cc3)nc12 | 9.43 | 3.1 | 3.29 | 4.33 | 13.9 | > 44.9 | 12 | 3.58 | 3.48 |  |  |  |  |  |  |  |  |  |  | 
8 | COc1ccc2[nH]c3c(C)cc([N+](=O)[O-])c(C)c3c2c1 | 76.5 | 88.4 | 92.2 | 43 |  | > 100 | > 100 | > 100 | 53.2 |  |  |  |  |  |  |  |  |  |  | 
9 | CC(=O)NNc1nc(C)c(C(=O)NNC(=O)C(=O)Nc2ccc([N+](=O)[O-])cc2C#N)s1 | > 100 | > 100 | > 100 | > 100 | > 100 | > 100 | > 100 | > 100 | > 100 |  |  |  |  |  |  |  |  |  |  | 
10 | Cc1cc(=O)[nH]c(CNC(=O)c2cccc(C(=O)NCc3cc(=O)[nH]c(C)n3)c2)n1 | > 100 | > 100 | > 100 | > 100 | > 100 | > 100 | > 100 | > 100 | > 100 |  |  |  |  |  |  |  |  |  |  | 
11 | CCOC(=O)C1([Se]c2ccccc2)CCCC1=O (stereo not given) | > 100 | 58 | 41.9 | 15.5 | > 100 | 78.4 | 98 | > 100 | 47.2 |  |  |  |  |  |  |  |  |  |  | 
12 | Cn1c(=O)c2[nH]cnc2n(CC(N)=O)c1=O | > 100 | > 100 | > 100 | > 100 |  | > 100 | > 100 |  | > 100 |  |  |  |  |  |  |  |  |  |  | 
13 | COc1cc2c(cc1C1=NC(C)(C)CO1)OCO2 | > 100 | > 100 | > 100 | > 100 |  | > 100 | > 100 | > 100 | > 100 |  |  |  |  |  |  |  |  |  |  | 
14 | CN(/N=C/c1cccc2cccnc12)c1c([N+](=O)[O-])cc([N+](=O)[O-])cc1[N+](=O)[O-] | > 100 | > 100 | > 100 |  | > 100 | > 100 | > 100 | > 100 | > 100 |  |  |  |  |  |  |  |  |  |  | 
15 | c1ccc(P(=C2c3ccccc3-c3ccccc32)(c2ccccc2)c2ccccc2)cc1 | 52.2 | 3.96 | 20.2 | 4.62 | 48.3 | > 100 | 6.13 | 27.3 | 32.6 |  |  |  |  |  |  |  |  |  |  | 
16 | CCn1c2c(c3ccccc31)C(c1ccccc1)CC1C(=O)N(c3ccccc3)C(=O)C21 (stereo not given) | > 100 | > 100 | > 100 | > 100 | > 100 | > 100 | > 100 | > 100 | > 100 |  |  |  |  |  |  |  |  |  |  | 
17 | CCCCCCCC(=O)OCC(=O)[C@]1(O)Cc2c(O)c3c(c(O)c2[C@@H](OC2CC(N)C(O)C(C)O2)C1)C(=O)c1c(OC)cccc1C3=O (stereo not given in full) | 2 | 0.185 | 0.902 |  | 1.24 |  |  |  | 0.634 | 2.17 | 0.265 | 0.0427 | 0.199 |  | 0.422 | 0.578 |  |  | 0.0866 | 
18 | COc1cc2c(=O)n(CCN(C)C)c3c4cc5c(cc4ccc3c2cc1OC)OCO5 |  | 0.559 | 3.3 | 1.21 | 3.8 | 2.55 | 19 | 1.52 | 0.723 | 3.53 |  | 0.152 | 0.747 | 0.114 | 0.519 | 0.824 | 0.583 | 0.413 | 0.166 | 0.257
19 | C#CC1(O)CCC2[C@@H]3CCc4cc(Oc5nc(F)nc(-c6c7ccccc7cn6C)n5)ccc4C3CC[C@@]21C (stereo not given in full) | > 100 |  | > 100 | > 100 | > 100 |  | > 100 | > 100 | > 100 |  |  |  |  |  |  |  |  |  |  | 
20 | COC1C2c3cc4c(cc3CC(C#N)(c3ccccc32)N1C(=O)c1ccccc1)OCO4 (stereo not given) | > 100 | > 100 | > 100 | > 100 | > 100 | > 100 | > 100 | > 100 | > 100 |  |  |  |  |  |  |  |  |  |  | 
21 | OC12c3ccccc3C3CCC4(OCCO4)C3C1c1ccccc12 (stereo not given) | > 100 | > 100 | > 100 | > 100 | > 100 | > 100 | > 100 | > 100 | > 100 |  |  |  |  |  |  |  |  |  |  | 
